Data as given in article PMC7532004, “Site-specific effects of neurosteroids on GABAA receptor activation and desensitization” (eLife, 2020).

Biological target: T1, α1β3 GABAAR (α1His-FLAGβ3) (Homo sapiens, UniProt P14867+P28472)
T1 construct: inserted between the fourth and fifth residues of the mature peptide; photolabeling full-length heteropentameric GABAARs in native membranes; expressed in transfected cells
T1 sequence (P14867 28-456): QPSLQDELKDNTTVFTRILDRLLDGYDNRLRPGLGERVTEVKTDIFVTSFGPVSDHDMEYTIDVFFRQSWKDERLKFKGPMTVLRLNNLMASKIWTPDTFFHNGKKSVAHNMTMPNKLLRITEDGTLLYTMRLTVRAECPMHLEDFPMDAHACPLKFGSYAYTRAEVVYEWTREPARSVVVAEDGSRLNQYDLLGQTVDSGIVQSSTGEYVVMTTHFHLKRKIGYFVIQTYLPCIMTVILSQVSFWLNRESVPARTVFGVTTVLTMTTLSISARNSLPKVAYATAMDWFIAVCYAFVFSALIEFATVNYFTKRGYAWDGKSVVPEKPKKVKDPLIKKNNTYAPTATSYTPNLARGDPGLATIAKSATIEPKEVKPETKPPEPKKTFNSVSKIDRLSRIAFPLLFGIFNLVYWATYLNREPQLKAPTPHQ
T1 sequence (P28472 26-473): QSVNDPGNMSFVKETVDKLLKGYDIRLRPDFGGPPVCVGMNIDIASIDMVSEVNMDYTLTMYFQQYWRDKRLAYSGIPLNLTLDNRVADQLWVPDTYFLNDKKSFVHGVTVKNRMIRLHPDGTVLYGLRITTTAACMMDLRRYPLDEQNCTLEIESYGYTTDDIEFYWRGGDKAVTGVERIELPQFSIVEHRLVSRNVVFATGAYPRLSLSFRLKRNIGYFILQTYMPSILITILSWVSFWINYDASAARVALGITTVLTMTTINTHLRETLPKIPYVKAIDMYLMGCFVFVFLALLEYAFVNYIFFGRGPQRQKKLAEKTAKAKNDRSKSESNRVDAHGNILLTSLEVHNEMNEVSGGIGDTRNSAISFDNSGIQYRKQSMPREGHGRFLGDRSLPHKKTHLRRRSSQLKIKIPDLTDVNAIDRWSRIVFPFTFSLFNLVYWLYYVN
Assay: Neurosteroid photolabeling and competition, middle-down mass spectrometry
Assay type: binding
Conditions: for Prevention of KK200 photolabeling of α1N408 in the α1 intrasubunit site / Prevention of KK200 photolabeling of β3G308 in the intersubunit site: 3 μM KK200; for Photolabeling efficiency of α1 subunit TM4 (Y415, α1 intrasubunit site) / Photolabeling efficiency of β3 subunit TM4 peptide (β3 intrasubunit site): 30 μM photolabeling reagent
Description: The syntheses of neurosteroid photolabeling reagents (KK148, KK150, KK200, KK123) are detailed in previous reports ([Jiang et al., 2016]; [Cheng et al., 2018]). […] For the photolabeling competition experiments, 3 μM KK200 or KK123 in the presence of 30 μM competitor (3α5αP, KK148, KK150, and 3β5αP) or the same volume of ethanol was added to the membrane proteins and incubated on ice for 1 hr. The samples were then irradiated in a quartz cuvette for 5 min, by using a photoreactor emitting light at >320 nm. The membrane proteins were then collected by centrifugation at 20,000 g at 4°C for 45 min. The photolabeled membrane proteins were resuspended in lysis buffer containing 1% n-dodecyl-β-D-maltoside (DDM), 0.25% cholesteryl hemisuccinate (CHS), 50 mM Tris (pH 7.5), 150 mM NaCl, 2 mM CaCl2, 5 mM KCl, 5 mM MgCl2, 1 mM EDTA, 10% glycerol at a final concentration of 1 mg/ml. The membrane protein suspension was homogenized using a glass mortar and a Teflon pestle and incubated at 4°C overnight. The protein lysate was centrifuged at 20,000 g at 4°C for 45 min and supernatant was incubated with 0.5 ml anti-FLAG agarose (Sigma) at 4°C for 2 hr. The anti-FLAG agarose was then transferred to an empty column, followed by washing with 20 ml washing buffer (50 mM triethylammonium bicarbonate and 0.05% DDM). The GABAARs were eluted with aliquots of 200 μg/ml FLAG tag peptide and 100 μg/ml 3X FLAG (ApexBio) in the washing buffer. The pooled eluates (9 ml) containing GABAARs were concentrated to 100 μl using 100 kDa cut-off centrifugal filters.
The purified α1β3 GABAAR (100 μl) was reduced with 5 mM tris(2-carboxyethyl)phosphine for 1 hr, alkylated with 5 mM N-ethylmaleimide (NEM) for 1 hr, and quenched with 5 mM dithiothreitol (DTT) for 15 min. These three steps were done at RT. Samples were then digested with 8 μg of trypsin for 7 days at 4°C to obtain maximal recovery of TMD peptides. The digestions were terminated by adding formic acid in a final concentration of 1%, followed directly by LC-MS analysis on an Orbitrap Elite mass spectrometer. 20 μl samples were injected into a home-packed PLRP-S (Agilent, Santa Clara, CA) column (10 cm ×75 μm, 300 Å), separated with a 145 min gradient from 10% to 90% acetonitrile, and introduced to the mass spectrometer at 800 nl/min with a nanospray source. MS acquisition was set as a MS1 Orbitrap scan (resolution of 60,000) followed by top 20 MS2 Orbitrap scans (resolution of 15,000) using data-dependent acquisition, and exclusion of singly charged precursors. Fragmentation was performed using high-energy dissociation with normalized energy of 35%. Analysis of data sets was performed using Xcalibur (Thermo Fisher Scientific) to manually search for TM1, TM2, TM3 or TM4 tryptic peptides with or without neurosteroid photolabeling modifications. Photolabeling efficiency was estimated by generating extracted chromatograms of unlabeled and labeled peptides, determining the area under the curve, and calculating the abundance of labeled peptide/(unlabeled + labeled peptide). Analysis of statistical significance comparing the photolabeling efficiency of KK200 and KK123 for α1β3 GABAAR was determined using one-way ANOVA with Bonferroni's multiple comparisons test and paired t-test, respectively (Prism 6, GraphPad Software, San Diego, CA). MS2 spectra of photolabeled TMD peptides were analyzed by manual assignment of fragment ions with and without photolabeling modification. Fragment ions were accepted based on the presence of a monoisotopic mass within 20 ppm mass accuracy. In addition to manual analysis, PEAKS (Bioinformatics Solutions Inc, Waterloo, ON, Canada) database searches were performed for data sets of photolabeled α1β3 GABAAR. […]

Row | Compound | Prevention of KK200 photolabeling of α1N408 in the α1 intrasubunit site (30 μM competitor) | Prevention of KK200 photolabeling of β3G308 in the intersubunit site (30 μM competitor) | Photolabeling efficiency of α1 subunit TM4 (Y415, α1 intrasubunit site) [%] | Photolabeling efficiency of β3 subunit TM4 peptide (β3 intrasubunit site) [%] | Inhibition of KK123 photolabeling at the α1 (α1Y415) and β3 (β3Y442) intrasubunit sites (30 μM competitor, 3 μM KK123)
1 | C#CCCO[C@@H]1CC[C@H]2[C@@H]3CC[C@H]4CC5(CC[C@]4(C)[C@H]3CC[C@]12C)N=N5 [KK150] | prevented | prevented | 0.62 | 0.19 | –
2 | CC(=O)[C@H]1CC[C@H]2[C@@H]3CC[C@H]4C[C@@H](O)CC[C@]4(C)[C@H]3CC[C@]12C [3β5αP, epi-allopregnanolone] | prevented | does not bind to the intersubunit site | – | – | completely inhibited
3 | CC(=O)[C@H]1CC[C@H]2[C@@H]3CC[C@H]4C[C@H](O)CC[C@]4(C)[C@H]3CC[C@]12C [3α5αP, allopregnanolone] | prevented | prevented | – | – | –
4 | C#CCCO[C@H]1CC[C@H]2[C@@H]3CC[C@H]4CC5(CC[C@]4(C)[C@H]3CC[C@]12C)N=N5 [KK148] | prevented | prevented | 0.77 | 0.13 | –
